Reference: ChEMBL document CHEMBL4619760, “Anti-inflammatory Efficacy of Combined Natural Alkaloid Berberine and S1PR Modulator Fingolimod at Low Doses in Ulcerative Colitis Preclinical Models” (J Nat Prod, 2020)
The source made the active and inactive calls. The rule behind the calls is not given here.

Key:
Mus musculus [1] = assay: Anti-colitis activity against DSS-induced C57BL/6 mouse model of subchronic relapsing colitis assessed as effect on body weight at 0.3 mg/kg, po administered once daily for 14 days starting from day 5 post DSS-challenge and measured after day 12 to day 18; type: functional, organism-based
Mus musculus [2] = assay: Anti-colitis activity against DSS-induced C57BL/6 mouse model of subchronic relapsing colitis assessed as effect on body weight at 0.15 mg/kg, po administered once daily for 14 days starting from day 5 post DSS-challenge cotreated with 20 mg/kg berberine and measured after day 12 to day 18; type: functional, organism-based
Mus musculus [3] = assay: Anti-colitis activity against DSS-induced C57BL/6 mouse model of subchronic relapsing colitis assessed as reduction in stool bleeding scores at 0.3 mg/kg, po administered once daily for 14 days starting from day 5 post DSS challenge and measured on day 19; type: functional, organism-based
Mus musculus [4] = assay: Anti-colitis activity against DSS-induced C57BL/6 mouse model of subchronic relapsing colitis assessed as reduction in colon swelling at 0.15 mg/kg, po administered once daily for 14 days starting from day 5 post DSS-challenge cotreated with 20 mg/kg berberine and measured after day 12 to day 18; type: functional, organism-based
Mus musculus [5] = assay: Anti-colitis activity against DSS-induced C57BL/6 mouse model of subchronic relapsing colitis assessed as reduction in spleen swelling at 0.3 mg/kg, po administered once daily for 14 days starting from day 5 post DSS-challenge; type: functional, organism-based
Mus musculus [6] = assay: Anti-colitis activity against DSS-induced C57BL/6 mouse model of chronic relapsing colitis assessed as reduction in stool bleeding at 0.3 mg/kg, po administered once daily for 30 days starting from day 13 post DSS-challenge measured on day 38; type: functional, organism-based
Mus musculus [7] = assay: Anti-colitis activity against DSS-induced C57BL/6 mouse model of chronic relapsing colitis assessed as reduction in stool consistency score at 0.15 mg/kg, po administered once daily for 30 days starting from day 13 post DSS-challenge cotreated with 20 mg/kg berberine measured on day 43; type: functional, organism-based
Mus musculus [8] = assay: Anti-colitis activity against DSS-induced C57BL/6 mouse model of chronic relapsing colitis assessed as reduction in stool bleeding at 0.15 mg/kg, po administered once daily for 30 days starting from day 13 post DSS-challenge cotreated with 20 mg/kg berberine and measured on day 43; type: functional, organism-based
Mus musculus [9] = assay: Anti-colitis activity against DSS-induced C57BL/6 mouse model of chronic relapsing colitis assessed as reduction in disease activity index at 0.15 mg/kg, po administered once daily for 30 days starting from day 13 post DSS-challenge cotreated with 20 mg/kg berberine and measured on day 43; type: functional, organism-based
Mus musculus [10] = assay: Anti-colitis activity against DSS-induced C57BL/6 mouse model of subchronic relapsing colitis assessed as reduction in DSS-induced colon swelling at 0.3 mg/kg, po administered once daily for 30 days starting from day 13 post DSS-challenge; type: functional, organism-based
Mus musculus [11] = assay: Anti-colitis activity against DSS-induced C57BL/6 mouse model of chronic relapsing colitis assessed as reduction in DSS-induced spleen swelling at 0.3 mg/kg, po administered once daily for 30 days starting from day 13 post DSS-challenge; type: functional, organism-based
Mus musculus [12] = assay: Anti-colitis activity against DSS-induced C57BL/6 mouse model of chronic relapsing colitis assessed as reduction in DSS-induced inflammatory cell infiltration in colon at 0.3 mg/kg, po administered once daily for 30 days starting from day 13 post DSS-challenge by hematoxylin and eosin staining based light microscopic analysis; type: functional, organism-based
Mus musculus [13] = assay: Anti-colitis activity against DSS-induced C57BL/6 mouse model of chronic relapsing colitis assessed as reduction in DSS-induced inflammatory cell infiltration in colon at 0.15 mg/kg, po administered once daily for 30 days starting from day 13 post DSS-challenge cotreated with 20 mg/kg berberine; type: functional, organism-based
[14] = (§1) Toxicity in DSS-induced C57BL/6 mouse model of chronic relapsing colitis assessed as induction of abnormalities in heart at 0.3 mg/kg, po administered once daily for 30 days starting from day 13 post DSS-challenge by hematoxylin and eosin staining based light microscopic analysis; type: organism-based; conditions: in vivo, 720 h
[15] = Toxicity in DSS-induced C57BL/6 mouse model of chronic relapsing colitis assessed as induction of abnormalities in liver at 0.3 mg/kg, po administered once daily for 30 days starting from day 13 post DSS-challenge by hematoxylin and eosin staining based light microscopic analysis; type: organism-based; conditions: in vivo, 720 h
[16] = Toxicity in DSS-induced C57BL/6 mouse model of chronic relapsing colitis assessed as induction of abnormalities in kidney at 0.3 mg/kg, po administered once daily for 30 days starting from day 13 post DSS-challenge by hematoxylin and eosin staining based light microscopic analysis; type: organism-based; conditions: in vivo, 720 h
[17] = as §1, with “brain” for “heart”, “0.15” for “0.3”, “DSS-challenge cotreated with 20 mg/kg berberine” for “DSS-challenge”; type: organism-based; conditions: in vivo, 720 h
[18] = as §1, with “lung” for “heart”, “0.15” for “0.3”, “DSS-challenge cotreated with 20 mg/kg berberine” for “DSS-challenge”; type: organism-based; conditions: in vivo, 720 h
Mus musculus [19] = assay: Antiinflammatory activity against DSS-induced C57BL/6 mouse model of subchronic relapsing colitis assessed as reduction in IL17 mRNA level at 0.3 mg/kg, po administered once daily for 14 days starting from day 5 post DSS-challenge by RT-qPCR analysis; type: functional, organism-based
Mus musculus [20] = assay: Antiinflammatory activity against DSS-induced C57BL/6 mouse model of subchronic relapsing colitis assessed as reduction in TNFalpha mRNA level at 0.3 mg/kg, po administered once daily for 14 days starting from day 5 post DSS-challenge by RT-qPCR analysis; type: functional, organism-based
Mus musculus [21] = assay: Antiinflammatory activity against DSS-induced C57BL/6 mouse model of subchronic relapsing colitis assessed as reduction in IL17 mRNA level at 0.15 mg/kg, po administered once daily for 14 days starting from day 5 post DSS-challenge cotreated with 20 mg/kg berberine by RT-qPCR analysis; type: functional, organism-based
Mus musculus [22] = assay: Antiinflammatory activity against DSS-induced C57BL/6 mouse model of subchronic relapsing colitis assessed as reduction in TNFalpha mRNA level at 0.15 mg/kg, po administered once daily for 14 days starting from day 5 post DSS-challenge cotreated with 20 mg/kg berberine by RT-qPCR analysis; type: functional, organism-based
Mus musculus [23] = assay: Effect on total STAT3 expression in DSS-induced C57BL/6 mouse model of subchronic relapsing colitis at 0.3 mg/kg, po administered once daily for 14 days starting from day 5 post DSS-challenge by Western blot analysis; type: ADME, organism-based; conditions: in vivo, 336 h
Mus musculus [24] = assay: Effect on total STAT3 expression in DSS-induced C57BL/6 mouse model of subchronic relapsing colitis at 0.15 mg/kg, po administered once daily for 14 days starting from day 5 post DSS-challenge cotreated with 20 mg/kg berberine by Western blot analysis; type: ADME, organism-based; conditions: in vivo, 336 h
THP-1 = assay: Antiinflammatory activity in human THP1 cells assessed as reduction in LPS-induced TNFalpha mRNA level at 0.5 uM cotreated with 0.5 uM berberine incubated for 1 hr followed by LPS challenge and measured after 4 to 6 hrs by q-PCR method; type: functional, cell-based
Mus musculus [25] = assay: Anti-colitis activity against DSS-induced C57BL/6 mouse model of subchronic relapsing colitis assessed as reduction in phosphorylated STAT3 level at 0.3 mg/kg, po administered once daily for 14 days starting from day 5 post DSS-challenge cotreated with 20 mg/kg berberine by Western blot analysis; type: functional, organism-based

CCCCCCCCc1ccc(CCC(N)(CO)CO)cc1.Cl [FINGOLIMOD HYDROCHLORIDE]
Activity (Mus musculus [1]): inactive
Activity (Mus musculus [2]): inactive
Activity (Mus musculus [3]): Active
Activity (Mus musculus [4]): inactive
Activity (Mus musculus [5]): inactive
Activity (Mus musculus [6]): Active
Activity (Mus musculus [7]): Active
Activity (Mus musculus [8]): Active
Activity (Mus musculus [9]): Active
Activity (Mus musculus [10]): inactive
Activity (Mus musculus [11]): Active
Activity (Mus musculus [12]): Active
Activity (Mus musculus [13]): Active
Activity [14]: Non-Toxic
Activity [15]: Non-Toxic
Activity [16]: Non-Toxic
Activity [17]: Non-Toxic
Activity [18]: Non-Toxic
Activity (Mus musculus [19]): Active
Activity (Mus musculus [20]): Active
Activity (Mus musculus [21]): Active
Activity (Mus musculus [22]): Active
Activity (Mus musculus [23]): Non-Toxic
Activity (Mus musculus [24]): Non-Toxic
Activity (THP-1): Active
Activity (Mus musculus [25]): Active
